In paper PMC6017193, “Structure-Based Discovery of a Series of 5H-Pyrrolo[2,3-b]pyrazine FGFR Kinase Inhibitors” (Molecules : A Journal of Synthetic Chemistry and Natural …, 2018):

Experiments:
ErbB2 = ErbB2 (Homo sapiens, UniProt P04626); assay: Kinase panel profiling; type: biochemical
ErbB4 = ErbB4 (Homo sapiens, UniProt Q15303); assay: Kinase panel profiling; type: biochemical
[1] = system: KG1 leukemia cell line harboring FGFR1OP-FGFR1 fusion; assay: Cell proliferation assay in KG1 cells (SRB or MTT, 72 h); type: cell-based; conditions: Homo sapiens, KG-1, mean ± SD from two separate experiments, read-out: KG1 IC50 (antiproliferation activity)
Experimental: Cell proliferation was examined in a FGFR1-translocated KG1 leukemia cell line harboring FGFR1OP-FGFR1 fusion. The original KG1 cell line was purchased from ATCC (CRL-8031), and cultured according the ATCC standard protocol. Cells were seeded in 96-well tissue culture plates. On the next day, the cells were exposed to various concentrations of compounds and further cultured for 72 h. Cell proliferation was then determined using sulforhodamine B (SRB, from Sigma-Aldrich, St Louis, MO, USA) or the thiazolyl blue tetrazolium bromide (MTT, from Sigma-Aldrich, St Louis, MO, USA) assay. The IC50 values were calculated by concentration- response curve fitting using the four-parameter method.

c-Met = molecular target: T1, c-Met (Homo sapiens, UniProt P08581); assay: Kinase panel profiling (ELISA kinase assay); type: biochemical
T1 construct: purchased Millipore
Experimental: The effects of compounds on the activities of indicated (FGFR1 and c-Met) kinases were determined using enzyme-linked immunosorbent assays (ELISAs) with purified recombinant proteins. Briefly, 20 μg/mL poly (Glu, Tyr)4:1 (Sigma, St. Louis, MO, USA) was precoated in 96-well plates as a substrate. A 50-μL aliquot of 10 μmol/L ATP solution diluted in kinase reaction buffer (50 mmol/L HEPES (pH 7.4), 50 mmol/L MgCl2, 0.5 mmol/L MnCl2, 0.2 mmol/L Na3VO4, and 1 mmol/L DTT) was added to each well; 1 μL of various concentrations of compounds diluted in 1% DMSO (v/v) (Sigma) were then added to each reaction well. DMSO (1%, v/v) was used as the negative control. The kinase reaction was initiated by the addition of purified tyrosine kinase proteins FGFR1 (Millipore, Darmstadt, Germany) or c-Met (Millipore) diluted in 49 μL of kinase reaction buffer. After incubation for 60 min at 37 °C, the plate was washed three times with phosphate-buffered saline (PBS) containing 0.1% Tween 20 (T-PBS). Anti-phosphotyrosine (PY99) antibody (Sanra Cruz, Dallas, TX, USA) (100 μL; 1:500, diluted in 5 mg/mL bovine serum albumin (BSA) T-PBS) was then added. After a 30-min incubation at 37 °C, the plate was washed three times, and 100 μL of horseradish peroxidase-conjugated goat anti-mouse IgG (Calbiochem, Shanghai, China) (1:2000, diluted in 5 mg/mL BSA T-PBS) was added. The plate was then incubated at 37 °C for 30 min, and washed three times. A 100-μL aliquot of a solution containing 0.03% H2O2 and 2 mg/mL o-phenylenediamine in 0.1 mol/L citrate buffer (pH 5.5) was added. The reaction was terminated by the addition of 50 μL of 2 mol/L H2SO4 as the color changed, and the plate was analyzed using a multi-well spectrophotometer (SpectraMAX 190, Molecular Devices, Palo Alto, CA, USA) at 490 nm. The inhibition rate (%) was calculated using the following equation:IR = [1 − (A490/A490control)] × 100%.(1) where IR, A490, and A490control are the inhibition rate, the absorbance value of the tested compound at 490 nm, and the absorbance value of the negative control compound at 490 nm, respectively. The IC50 values were calculated from the inhibition curves in two separate experiments.

Src = Src (Homo sapiens, UniProt P12931); assay: Kinase panel profiling; type: biochemical
Chain of Src (P12931 whole entry, species assumed): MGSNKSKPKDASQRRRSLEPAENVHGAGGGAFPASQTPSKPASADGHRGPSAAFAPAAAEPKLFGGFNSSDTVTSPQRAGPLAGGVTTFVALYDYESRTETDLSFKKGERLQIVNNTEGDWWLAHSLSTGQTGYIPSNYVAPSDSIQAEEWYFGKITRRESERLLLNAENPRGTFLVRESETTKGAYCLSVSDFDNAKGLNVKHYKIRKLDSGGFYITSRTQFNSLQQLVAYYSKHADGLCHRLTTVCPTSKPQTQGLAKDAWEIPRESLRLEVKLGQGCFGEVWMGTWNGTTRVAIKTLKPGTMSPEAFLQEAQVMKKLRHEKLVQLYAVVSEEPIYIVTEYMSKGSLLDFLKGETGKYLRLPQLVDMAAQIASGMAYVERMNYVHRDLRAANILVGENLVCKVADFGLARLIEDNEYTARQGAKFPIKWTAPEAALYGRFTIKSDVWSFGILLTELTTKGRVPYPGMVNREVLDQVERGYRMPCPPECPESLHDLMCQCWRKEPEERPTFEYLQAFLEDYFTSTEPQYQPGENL

T1 sequence (P08581 25-1390): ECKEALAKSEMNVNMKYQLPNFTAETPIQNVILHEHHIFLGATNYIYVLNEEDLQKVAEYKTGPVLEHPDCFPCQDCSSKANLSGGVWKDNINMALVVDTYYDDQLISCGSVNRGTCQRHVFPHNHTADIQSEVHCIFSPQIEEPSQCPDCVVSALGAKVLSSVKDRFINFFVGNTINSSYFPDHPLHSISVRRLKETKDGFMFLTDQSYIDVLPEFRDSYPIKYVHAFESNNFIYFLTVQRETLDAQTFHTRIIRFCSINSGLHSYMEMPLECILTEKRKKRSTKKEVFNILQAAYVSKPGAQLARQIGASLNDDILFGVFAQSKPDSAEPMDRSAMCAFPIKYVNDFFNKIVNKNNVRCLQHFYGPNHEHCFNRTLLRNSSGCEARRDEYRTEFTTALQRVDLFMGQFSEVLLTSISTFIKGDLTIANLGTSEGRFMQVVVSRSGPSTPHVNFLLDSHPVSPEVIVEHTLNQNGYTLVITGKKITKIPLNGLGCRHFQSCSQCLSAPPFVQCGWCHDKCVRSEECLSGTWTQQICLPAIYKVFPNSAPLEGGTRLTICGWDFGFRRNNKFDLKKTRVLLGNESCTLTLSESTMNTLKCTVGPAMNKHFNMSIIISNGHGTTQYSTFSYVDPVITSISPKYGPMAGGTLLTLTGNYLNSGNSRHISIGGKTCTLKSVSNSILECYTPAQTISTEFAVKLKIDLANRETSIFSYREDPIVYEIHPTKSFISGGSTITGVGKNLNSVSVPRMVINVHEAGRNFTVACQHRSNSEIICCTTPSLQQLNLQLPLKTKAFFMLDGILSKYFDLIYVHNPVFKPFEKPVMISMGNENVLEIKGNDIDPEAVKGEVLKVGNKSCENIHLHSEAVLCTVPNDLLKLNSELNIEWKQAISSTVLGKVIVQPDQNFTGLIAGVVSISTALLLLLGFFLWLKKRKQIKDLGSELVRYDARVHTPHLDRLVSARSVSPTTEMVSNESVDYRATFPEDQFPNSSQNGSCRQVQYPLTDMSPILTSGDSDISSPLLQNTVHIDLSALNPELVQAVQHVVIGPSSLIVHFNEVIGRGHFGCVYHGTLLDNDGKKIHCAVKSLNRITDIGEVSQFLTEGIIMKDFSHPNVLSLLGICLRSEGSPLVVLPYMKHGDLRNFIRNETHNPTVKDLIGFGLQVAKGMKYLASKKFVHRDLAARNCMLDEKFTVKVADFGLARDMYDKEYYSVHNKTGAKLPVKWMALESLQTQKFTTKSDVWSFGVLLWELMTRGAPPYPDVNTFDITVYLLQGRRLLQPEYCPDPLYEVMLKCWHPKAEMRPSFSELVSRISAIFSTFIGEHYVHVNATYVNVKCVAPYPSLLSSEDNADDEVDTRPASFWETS
Chain of ErbB4 (Q15303 26-1308, species assumed): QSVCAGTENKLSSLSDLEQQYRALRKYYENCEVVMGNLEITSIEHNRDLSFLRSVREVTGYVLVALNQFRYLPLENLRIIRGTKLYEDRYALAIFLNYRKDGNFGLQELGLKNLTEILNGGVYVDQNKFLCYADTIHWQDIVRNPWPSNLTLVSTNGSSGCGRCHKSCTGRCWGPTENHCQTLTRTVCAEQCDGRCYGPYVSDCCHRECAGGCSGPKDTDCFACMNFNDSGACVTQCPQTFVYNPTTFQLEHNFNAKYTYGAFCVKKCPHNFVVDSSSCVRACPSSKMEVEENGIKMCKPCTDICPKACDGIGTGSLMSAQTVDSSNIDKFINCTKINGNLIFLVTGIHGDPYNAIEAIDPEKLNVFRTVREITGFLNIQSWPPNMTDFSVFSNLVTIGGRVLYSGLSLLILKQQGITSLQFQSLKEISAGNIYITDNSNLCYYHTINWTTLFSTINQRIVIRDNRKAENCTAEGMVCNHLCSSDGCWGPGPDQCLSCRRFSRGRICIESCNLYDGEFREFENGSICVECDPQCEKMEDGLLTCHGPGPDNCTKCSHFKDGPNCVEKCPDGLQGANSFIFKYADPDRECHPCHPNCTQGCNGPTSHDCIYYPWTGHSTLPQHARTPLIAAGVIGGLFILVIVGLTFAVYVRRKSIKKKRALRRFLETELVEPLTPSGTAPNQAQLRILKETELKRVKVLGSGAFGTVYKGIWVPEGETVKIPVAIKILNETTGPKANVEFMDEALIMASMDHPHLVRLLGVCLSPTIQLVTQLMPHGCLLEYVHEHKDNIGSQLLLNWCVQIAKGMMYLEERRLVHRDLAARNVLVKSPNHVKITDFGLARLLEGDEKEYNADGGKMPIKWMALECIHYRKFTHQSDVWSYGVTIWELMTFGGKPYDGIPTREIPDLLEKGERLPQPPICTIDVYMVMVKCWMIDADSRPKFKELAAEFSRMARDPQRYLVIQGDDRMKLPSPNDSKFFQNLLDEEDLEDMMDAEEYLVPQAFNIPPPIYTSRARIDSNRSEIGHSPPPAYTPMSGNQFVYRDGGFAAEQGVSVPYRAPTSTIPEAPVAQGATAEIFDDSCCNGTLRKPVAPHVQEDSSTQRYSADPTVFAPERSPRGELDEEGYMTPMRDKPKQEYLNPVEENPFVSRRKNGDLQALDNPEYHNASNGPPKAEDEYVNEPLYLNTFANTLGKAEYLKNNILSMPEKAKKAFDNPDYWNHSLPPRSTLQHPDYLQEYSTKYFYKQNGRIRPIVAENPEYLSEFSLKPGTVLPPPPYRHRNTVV
Chain of ErbB2 (P04626 23-1255, species assumed): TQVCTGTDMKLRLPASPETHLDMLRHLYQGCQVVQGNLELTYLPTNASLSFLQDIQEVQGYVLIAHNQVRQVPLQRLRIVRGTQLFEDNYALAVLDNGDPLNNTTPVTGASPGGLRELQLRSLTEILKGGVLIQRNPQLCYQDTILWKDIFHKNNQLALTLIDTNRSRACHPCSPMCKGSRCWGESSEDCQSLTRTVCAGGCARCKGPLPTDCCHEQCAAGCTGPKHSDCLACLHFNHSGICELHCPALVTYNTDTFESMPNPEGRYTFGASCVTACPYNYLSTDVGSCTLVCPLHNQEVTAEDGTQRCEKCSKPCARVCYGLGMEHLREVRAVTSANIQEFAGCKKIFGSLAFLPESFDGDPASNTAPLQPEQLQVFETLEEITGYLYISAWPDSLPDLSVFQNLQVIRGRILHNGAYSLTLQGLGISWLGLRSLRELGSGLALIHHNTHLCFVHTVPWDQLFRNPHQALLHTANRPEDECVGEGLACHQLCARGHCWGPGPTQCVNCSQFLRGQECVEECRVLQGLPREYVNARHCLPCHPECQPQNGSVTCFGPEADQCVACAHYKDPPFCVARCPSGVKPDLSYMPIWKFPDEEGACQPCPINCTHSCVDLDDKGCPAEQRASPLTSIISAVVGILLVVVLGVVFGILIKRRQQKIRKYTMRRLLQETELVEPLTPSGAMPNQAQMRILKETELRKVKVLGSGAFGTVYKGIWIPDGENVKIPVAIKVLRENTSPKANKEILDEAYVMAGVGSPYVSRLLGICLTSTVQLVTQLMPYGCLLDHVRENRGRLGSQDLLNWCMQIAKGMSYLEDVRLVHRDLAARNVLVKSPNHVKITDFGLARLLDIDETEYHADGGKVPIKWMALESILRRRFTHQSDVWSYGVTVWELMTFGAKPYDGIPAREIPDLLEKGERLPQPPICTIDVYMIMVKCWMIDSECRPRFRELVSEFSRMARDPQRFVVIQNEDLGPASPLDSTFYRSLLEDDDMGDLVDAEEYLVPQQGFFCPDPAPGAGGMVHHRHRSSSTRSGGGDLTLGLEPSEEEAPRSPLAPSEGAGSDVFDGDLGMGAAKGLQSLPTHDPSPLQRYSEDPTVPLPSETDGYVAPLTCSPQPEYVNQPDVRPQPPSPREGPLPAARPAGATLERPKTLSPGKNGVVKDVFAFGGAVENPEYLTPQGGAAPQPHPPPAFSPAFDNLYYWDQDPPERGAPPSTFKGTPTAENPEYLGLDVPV

O=S(=O)(c1cn(CCF)cn1)n1ccc2ncc(-c3cn[nH]c3)nc21 [Compound 13, 5-((1-(2-fluoroethyl)-1H-imidazol-4-yl)sulfonyl)-3-(1H-pyrazol-4-yl)-5H-pyrrolo[2,3-b]pyrazine]
inhibition at 0.01 µM (ErbB2; 10 nM): 0%
inhibition at 0.1 µM (ErbB2; 100 nM): 0%
inhibition at 1 µM (ErbB2; 1000 nM): 0%
inhibition at 0.01 µM (ErbB4; 10 nM): 0%
inhibition at 0.1 µM (ErbB4; 100 nM): 0%
inhibition at 1 µM (ErbB4; 1000 nM): 3%
IC50 [1]: 29.1 ± 5.5 nM
inhibition at 0.01 µM (c-Met; 10 nM): 3.9%
inhibition at 0.1 µM (c-Met; 100 nM): 3.9%
Kinase Inhibition (%) c-Met (c-Met; 1000 nM (1 μM)): nearly no inhibition
inhibition at 1 µM (c-Met; 1000 nM (1 μM)): 4.6%
inhibition at 0.01 µM (Src; 10 nM): 0%
inhibition at 0.1 µM (Src; 100 nM): 0%
inhibition at 1 µM (Src; 1000 nM): 0%
